The record followed here is patent US20040034036A1, “N-(3,5-dichloro-2-methoxyphenyl)-4-methoxy-3-piperazin-1-yl-benzenesulfonamide” (priority 2000, published 2004).

Series [1] can be described thus: MEST (Maximal electroshock seizure threshold) test. Particulars: procedures described by Upton et al. The series is classed as in vivo. (Protection in the maximal electroshock model is a classic sign of anticonvulsant action.)
The nature of the next series: oral bioavailability. The conditions noted are these: in vivo.
The next series can be described thus: CNS penetration. It counts as in vivo. The conditions noted are these: relative to N-(2,3,5-Trichlorophenyl)-4methoxy-3-piperazin-1-ylbenzenesulfonamide (Example 136 of WO 99/02502).

On to `COc1ccc(S(=O)(=O)Nc2cc(Br)cc(F)c2Br)cc1N1CCNCC1` [Example 140 of WO 99/02502, N-(2,5-Dibromo-3-fluorophenyl)-4-methoxy-3-piperazin-1-ylbenzenesulfonamide, reference compound], for which, in series [1], the “effect in MEST test” value was “pro-convulsant effect”.
On to `COc1ccc(S(=O)(=O)Nc2cc(Cl)cc(Cl)c2OC)cc1N1CCNCC1` [compound of formula (I), N-(3,5-Dichloro-2-methoxy-phenyl)-4-methoxy-3-piperazin-1-yl-benzenesulfonamide], for which the oral bioavailability result in the series “oral bioavailability” was “high”. Further, the CNS penetration result in “CNS penetration” is recorded as “enhanced”. In series [1], the “effect in MEST test” value is reported as “strongly anti-convulsant effect”.
